From patent US20240082228A1, “SARS-COV-2 THERAPEUTICS” (priority 2021, published 2024) come the findings set out here.

Several values for one entry are separate records, joined by “and”; a condition that tells them apart may be missing. Identical values can stand only once. Like-named read-outs stand apart in the source and are kept apart here.

The conditions of data set [1]: for Average Cell Number (1 uM) / Cell Number (1 uM) / Normalized Cell Number (1 uM): compound at 1 uM; for Average Cell Number (1 uM) / Average Cell Number (5 uM): average of normalized cell number, n=3, relative to DMSO; for Cell Number (1 uM) / Normalized Cell Number (1 uM) / Cell Number (5 uM) / Normalized Cell Number (5 uM): single replicate; for Cell Number (1 uM) / Cell Number (5 uM): raw cell count; for Normalized Cell Number (1 uM) / Normalized Cell Number (5 uM): relative to negative control DMSO; for Average Cell Number (5 uM) / Cell Number (5 uM) / Normalized Cell Number (5 uM): compound at 5 uM.

The subject of a further data set is SARS-CoV-2. Put plainly: microbe, parasite or virus in culture. Format: cell-based. To be noted: for activity at 1 µM: Severe acute respiratory syndrome coronavirus 2, 1 uM, read-out: Normalized Infection (1 uM); for activity at 1 µM / activity at 5 µM: single replicate, relative to negative control DMSO; for activity at 5 µM: Severe acute respiratory syndrome coronavirus 2, 5 uM, read-out: Normalized Infection (5 uM); for HIT: overall, 1 or 5 uM.

[2] abbreviates: 1 uM, average log2FC infection (n=3) relative to DMSO.
Setting [3] is: 5 uM, average log2FC infection (n=3) relative to DMSO.

Regarding `CCCCN(CCCC)CCC(O)c1cc2c(Cl)cc(Cl)cc2c2cc(C(F)(F)F)ccc12` (stereo not shown) [Halofantrine lot −4, halofantrine], in data set [1], the “Toxic (1 uM)” value was 0 (non-toxic (Normalized Cell number>0.65); the “Toxic (5 uM)” value is 0 (non-toxic (Normalized Cell number>0.65); the “Average Cell Number (1 uM)” value stood at 0.8035; the “Cell Number (1 uM)” value is 4727 and 4541 and 4857. Also, in data set [1], the “Normalized Cell Number (1 uM)” value was 0.8067 and 0.7749 and 0.8288; the “Average Cell Number (5 uM)” value came to 0.6652. Moreover, in the data set on SARS-CoV-2 (1 uM), the “HIT (2 Std, 1 uM)” value is on record as “HIT”. The “Average Infection (1 uM)” value with SARS-CoV-2 (setting [2]) is on record as −1.202. The “HIT (2 Stdv, 5 uM)” value in the data set on SARS-CoV-2 (5 uM) is reported as “HIT”. Also, the “Average Infection (5 uM)” value with SARS-CoV-2 (setting [3]) is −1.864. In the data set with SARS-CoV-2, the activity at 1 µM stood at 48.6%, the activity at 5 µM stood at 23.4% and the HIT entry is listed as “Yes”.

Take `CCCCN(CCCC)CCC(O)c1cc2c(Cl)cc(Cl)cc2c2cc(C(F)(F)F)ccc12` (stereo not shown) [Halofantrine lot −5, halofantrine]: in data set [1], the “Toxic (1 uM)” value was 0 (non-toxic (Normalized Cell number>0.65); the “Toxic (5 uM)” value was 0 (non-toxic (Normalized Cell number>0.65); the “Average Cell Number (1 uM)” value is 0.6582; the “Cell Number (1 uM)” value was 3755 and 3889 and 3927. Also, in data set [1], the “Normalized Cell Number (1 uM)” value is 0.6408 and 0.6637 and 0.6701; the “Average Cell Number (5 uM)” value amounted to 0.8653; the “Cell Number (5 uM)” value is 5286 and 5054 and 5044; the “Normalized Cell Number (5 uM)” value was 0.892 and 0.8528 and 0.8511. The “HIT (2 Std, 1 uM)” value with SARS-CoV-2 (1 uM) is “HIT”. Further, in the data set on SARS-CoV-2 (setting [2]), the “Average Infection (1 uM)” value is given as −1.062. The “HIT (2 Stdv, 5 uM)” value in the data set on SARS-CoV-2 (5 uM) was “HIT”. Besides, in the data set on SARS-CoV-2 (setting [3]), the “Average Infection (5 uM)” value was −1.947. Also, in the data set with SARS-CoV-2, the HIT result is reported as “Yes”.

Consider `CC(C)(C)c1cc(C(C)(C)C)c(NC(=O)c2c[nH]c3ccccc3c2=O)cc1O` [Ivacaftor, ivacaftor], for which, in data set [1], the “Toxic (5 uM)” value is 0 (non-toxic (Normalized Cell number>0.65); the “Average Cell Number (1 uM)” value is listed as 0.6354; the “Cell Number (1 uM)” value was 3730 and 3662 and 3779; the “Normalized Cell Number (1 uM)” value was 0.6365 and 0.6249 and 0.6449. Besides, in data set [1], the “Average Cell Number (5 uM)” value amounted to 0.735; the “Cell Number (5 uM)” value is 4520 and 4563 and 3984; the “Normalized Cell Number (5 uM)” value was 0.7627 and 0.77 and 0.6723. Also, in the data set with SARS-CoV-2, the “Average Infection (1 uM)” value is given as −0.9235, the “Average Infection (5 uM)” value is −0.9409, the activity at 1 µM was 59.8% and the activity at 5 µM worked out at 60.9%. Moreover, the HIT entry in the data set with SARS-CoV-2 was “Yes”. Besides, the “HIT (2 Std, 1 uM)” value in the data set with SARS-CoV-2 (1 uM) was “HIT”. Besides, the “HIT (2 Stdv, 5 uM)” value in the data set on SARS-CoV-2 (5 uM) is “HIT”.

As to `CC1(N)CCN(c2cccnc2NC(=O)c2nc(-c3ncccc3C(F)(F)F)cnc2N)CC1` [LXS-196, lxs196], in data set [1], the “Toxic (1 uM)” value is 0 (non-toxic (Normalized Cell number>0.65); the “Average Cell Number (1 uM)” value turned out to be 0.9125; the “Cell Number (1 uM)” value was 5737 and 5507 and 4798; the “Normalized Cell Number (1 uM)” value was 0.979 and 0.9398 and 0.8188. Also, the “Average Cell Number (5 uM)” value in data set [1] is 0.5379. Moreover, the “HIT (2 Std, 1 uM)” value with SARS-CoV-2 (1 uM) was “HIT”. In addition, the “Average Infection (1 uM)” value with SARS-CoV-2 (setting [2]) is −2.123. For the same compound, in the data set with SARS-CoV-2 (5 uM), the “HIT (2 Stdv, 5 uM)” value is “HIT”. In addition, the “Average Infection (5 uM)” value in the data set on SARS-CoV-2 (setting [3]) is on record as −6.497. In addition, in the data set on SARS-CoV-2, the activity at 1 µM is 31% and the HIT entry is “Yes”.

Consider `CC1(C)Cc2c(-c3ccccc3)c(-c3ccc(Cl)cc3)c(CC(=O)O)n2C1` [Licofelone, licofelone], for which, in data set [1], the “Toxic (5 uM)” value is 0 (non-toxic (Normalized Cell number>0.65); the “Average Cell Number (1 uM)” value is 0.6254; the “Cell Number (1 uM)” value is 3716 and 3591 and 3687; the “Normalized Cell Number (1 uM)” value was 0.6341 and 0.6128 and 0.6292. In data set [1], the “Average Cell Number (5 uM)” value is listed as 0.8061; the “Cell Number (5 uM)” value is 4830 and 4798 and 4704; the “Normalized Cell Number (5 uM)” value was 0.815 and 0.8096 and 0.7938. For the same compound, the “HIT (2 Std, 1 uM)” value with SARS-CoV-2 (1 uM) is reported as “HIT”. Moreover, the “Average Infection (1 uM)” value in the data set with SARS-CoV-2 (setting [2]) is given as −0.7411. For the same compound, the “HIT (2 Stdv, 5 uM)” value in the data set with SARS-CoV-2 (5 uM) is “HIT”. The “Average Infection (5 uM)” value in the data set on SARS-CoV-2 (setting [3]) is recorded as −0.555. In the data set with SARS-CoV-2, the activity at 1 µM was 59.1% and the HIT entry is on record as “Yes”.

Consider `O=C(O)CC[C@H]1CC[C@@](c2cc(F)ccc2F)(S(=O)(=O)c2ccc(Cl)cc2)CC1` [MK-0752, mk-0752], for which, in data set [1], the “Toxic (1 uM)” value is on record as 0 (non-toxic (Normalized Cell number>0.65); the “Toxic (5 uM)” value is reported as 0 (non-toxic (Normalized Cell number>0.65); the “Average Cell Number (1 uM)” value turned out to be 0.6912; the “Cell Number (1 uM)” value is 3905 and 4070 and 4177. Further, in data set [1], the “Normalized Cell Number (1 uM)” value is 0.6664 and 0.6945 and 0.7128; the “Average Cell Number (5 uM)” value was 0.8746; the “Cell Number (5 uM)” value is 5100 and 5130 and 5319; the “Normalized Cell Number (5 uM)” value is 0.8606 and 0.8656 and 0.8975. Further, in the data set on SARS-CoV-2 (1 uM), the “HIT (2 Std, 1 uM)” value was “HIT”. Moreover, the “Average Infection (1 uM)” value in the data set on SARS-CoV-2 (setting [2]) is on record as −0.4386. Moreover, the “Average Infection (5 uM)” value with SARS-CoV-2 (setting [3]) was −0.353. Also, in the data set with SARS-CoV-2, the activity at 1 µM amounted to 70.8% and the HIT entry was “Yes”.

On to `O=C(O)Cn1nnc(-c2cc(N3CCC(Oc4cc(F)ccc4Br)CC3)no2)n1` [MK-8245, mk-8245], for which, in data set [1], the “Toxic (1 uM)” value is 0 (non-toxic (Normalized Cell number>0.65), the “Toxic (5 uM)” value is given as 0 (non-toxic (Normalized Cell number>0.65), the “Average Cell Number (1 uM)” value was 0.7263 and the “Average Cell Number (5 uM)” value came to 0.9401. Besides, in data set [1], the “Cell Number (5 uM)” value is 5812 and 4892 and 6009; the “Normalized Cell Number (5 uM)” value was 0.9807 and 0.8255 and 1.014. Further, the “HIT (2 Std, 1 uM)” value in the data set on SARS-CoV-2 (1 uM) is listed as “HIT”. Also, the “Average Infection (1 uM)” value with SARS-CoV-2 (setting [2]) is 0.7764. Also, in the data set on SARS-CoV-2 (setting [3]), the “Average Infection (5 uM)” value is on record as −0.05739. The HIT result in the data set on SARS-CoV-2 is on record as “Yes”.

As for `CC1(C)S[C@@H]2[C@H](/N=C/N3CCCCCC3)C(=O)N2[C@H]1C(=O)O` [Mecillinam, mecillinam], in data set [1], the “Toxic (1 uM)” value was 0 (non-toxic (Normalized Cell number>0.65); the “Toxic (5 uM)” value is listed as 0 (non-toxic (Normalized Cell number>0.65); the “Average Cell Number (1 uM)” value came to 1.097; the “Cell Number (1 uM)” value was 6136 and 6699 and 6450. For the same compound, in data set [1], the “Normalized Cell Number (1 uM)” value was 1.047 and 1.143 and 1.101; the “Average Cell Number (5 uM)” value turned out to be 0.9928; the “Cell Number (5 uM)” value was 6088 and 5755 and 5808; the “Normalized Cell Number (5 uM)” value was 1.027 and 0.9711 and 0.9801. For the same compound, the “HIT (2 Std, 1 uM)” value in the data set on SARS-CoV-2 (1 uM) was “HIT”. In addition, in the data set with SARS-CoV-2 (setting [2]), the “Average Infection (1 uM)” value is −3.47. For the same compound, the “Average Infection (5 uM)” value with SARS-CoV-2 (setting [3]) is on record as −0.06608. Moreover, in the data set with SARS-CoV-2, the activity at 5 µM amounted to 104% and the HIT result is reported as “Yes”.
